Results taken from PubChem BioAssay (NCI).
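A five-concentration, 48-hour dose response in 96-well plates underlies each endpoint, interpolated linearly between surrounding concentrations. At the TGI there is no net growth.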

How the values were obtained:
Assay in all cases: NCI anticancer screen, dose series, 48 h
[1] = system: 786-0 renal
[2] = system: CAKI-1 renal
[3] = system: CCRF-CEM leukemia
[4] = system: EKVX NSCLC
[5] = system: HS 578T breast
[6] = system: HT29 colon
[7] = system: IGROV1 ovarian
[8] = system: LOX IMVI melanoma
[9] = system: MALME-3M melanoma
[10] = system: MCF7 breast
[11] = system: MDA-MB-231 breast
[12] = system: MDA-MB-435
[13] = system: NCI-H23 lung
[14] = system: OVCAR-5 ovarian
[15] = system: OVCAR-8 ovarian
[16] = system: RXF 393 renal
[17] = system: SK-OV-3 ovarian
[18] = system: SNB-19 CNS
[19] = system: UACC-62 melanoma

Cc1cccc(C(=O)O)c1CC1NCCC2c3ccccc3NC12 (centres undefined)
TGI [1]: > 100 µM | TGI [2]: > 100 µM | TGI [3]: > 100 µM | TGI [4]: > 100 µM | TGI [5]: > 100 µM | TGI [6]: > 100 µM | TGI [7]: > 100 µM | TGI [8]: > 100 µM | TGI [9]: > 100 µM | TGI [10]: > 100 µM | TGI [11]: > 100 µM | TGI [12]: > 100 µM | TGI [13]: > 100 µM | TGI [14]: > 100 µM | TGI [15]: > 100 µM | TGI [16]: > 100 µM | TGI [17]: > 100 µM | TGI [18]: > 100 µM | TGI [19]: > 100 µM

CCOC(=O)c1cn2c(ccc3sc4ccccc4c(=O)c32)n1
TGI [1]: > 100 µM | TGI [2]: > 100 µM | TGI [3]: > 100 µM | TGI [4]: > 100 µM | TGI [5]: > 100 µM | TGI [6]: > 100 µM | TGI [7]: > 100 µM | TGI [8]: > 100 µM | TGI [9]: > 100 µM | TGI [10]: > 100 µM | TGI [11]: > 100 µM | TGI [12]: > 100 µM | TGI [13]: > 100 µM | TGI [14]: > 100 µM | TGI [15]: > 100 µM | TGI [16]: > 100 µM | TGI [18]: > 100 µM

CC#CCCCC1(C)CCCNC1=S (centres undefined)
TGI [1]: > 10 µM | TGI [3]: > 10 µM | TGI [4]: > 10 µM | TGI [5]: > 10 µM | TGI [6]: > 10 µM | TGI [7]: > 10 µM | TGI [8]: > 10 µM | TGI [9]: > 10 µM | TGI [10]: > 10 µM | TGI [11]: > 10 µM | TGI [12]: > 10 µM | TGI [13]: > 10 µM | TGI [14]: > 10 µM | TGI [15]: > 10 µM | TGI [16]: > 10 µM | TGI [17]: > 10 µM | TGI [18]: > 10 µM | TGI [19]: > 10 µM

CCCCN1C(=O)CS/C1=N/Nc1nc2c([nH]1)c(=O)n(C)c(=O)n2C
TGI [1]: 41.7 µM | TGI [2]: > 100 µM | TGI [3]: 54.8 µM | TGI [4]: > 100 µM | TGI [5]: > 100 µM | TGI [6]: > 100 µM | TGI [7]: > 100 µM | TGI [9]: > 100 µM | TGI [10]: 31.3 µM | TGI [11]: > 100 µM | TGI [12]: 40.7 µM | TGI [13]: > 100 µM | TGI [14]: 59.4 µM | TGI [16]: > 100 µM | TGI [17]: > 100 µM | TGI [18]: > 100 µM | TGI [19]: > 100 µM

Cc1nc2ccccc2c(=O)n1/N=C/c1ccc(N(C)C)cc1
TGI [1]: > 100 µM | TGI [2]: > 100 µM | TGI [3]: > 100 µM | TGI [4]: > 100 µM | TGI [5]: 54 µM | TGI [6]: > 100 µM | TGI [7]: > 100 µM | TGI [8]: > 100 µM | TGI [9]: > 100 µM | TGI [10]: > 100 µM | TGI [11]: > 100 µM | TGI [12]: > 100 µM | TGI [13]: > 100 µM | TGI [14]: > 100 µM | TGI [15]: > 100 µM | TGI [17]: > 100 µM | TGI [18]: > 100 µM | TGI [19]: > 100 µM

CC(=O)OCCOCCN1CCN(c2c(O)c3c(c(O)c2Cl)C(=O)C=CC3=O)CC1
TGI [1]: 0.913 µM | TGI [2]: 0.878 µM | TGI [4]: 3.22 µM | TGI [5]: 7.59 µM | TGI [6]: 2.17 µM | TGI [7]: 3.04 µM | TGI [8]: 1.66 µM | TGI [9]: 0.96 µM | TGI [10]: 0.976 µM | TGI [11]: 1.09 µM | TGI [12]: 1.95 µM | TGI [13]: 1.98 µM | TGI [14]: 2.97 µM | TGI [15]: 2.66 µM | TGI [16]: 1.93 µM | TGI [17]: 6.06 µM | TGI [18]: 6.82 µM | TGI [19]: 2.81 µM

C/C(=C1\C(=O)C(c2ccccc2)N(c2ccccc2)C1=O)c1ccc(Cl)cc1 (centres undefined)
TGI [1]: 38.6 µM | TGI [2]: 48.4 µM | TGI [4]: 79.6 µM | TGI [5]: 40.9 µM | TGI [6]: 31.2 µM | TGI [7]: 40.5 µM | TGI [8]: 28.5 µM | TGI [9]: 37.4 µM | TGI [10]: > 100 µM | TGI [11]: 57.6 µM | TGI [12]: 32.8 µM | TGI [13]: 31.9 µM | TGI [16]: 79.2 µM | TGI [17]: 30.8 µM | TGI [18]: 32.7 µM | TGI [19]: 30.8 µM

O=C1CCCC[C@H]1C(O)CC1CC(=O)N(c2ccccc2)C(=O)C1 (some centres undefined)
TGI [1]: > 100 µM | TGI [2]: > 100 µM | TGI [3]: > 100 µM | TGI [5]: > 100 µM | TGI [6]: > 100 µM | TGI [7]: > 100 µM | TGI [8]: > 100 µM | TGI [9]: > 100 µM | TGI [10]: > 100 µM | TGI [11]: > 100 µM | TGI [12]: > 100 µM | TGI [13]: > 100 µM | TGI [14]: > 100 µM | TGI [15]: > 100 µM | TGI [16]: > 100 µM | TGI [18]: > 100 µM | TGI [19]: > 100 µM

Cc1nn(-c2ccccc2)c2nc3ccc(Cl)cc3c(-c3ccccc3)c12
TGI [1]: > 100 µM | TGI [3]: > 100 µM | TGI [4]: > 100 µM | TGI [5]: > 100 µM | TGI [6]: > 100 µM | TGI [7]: > 100 µM | TGI [8]: > 100 µM | TGI [9]: > 100 µM | TGI [10]: > 100 µM | TGI [11]: > 100 µM | TGI [12]: > 100 µM | TGI [13]: > 100 µM | TGI [14]: > 100 µM | TGI [15]: > 100 µM | TGI [17]: > 100 µM | TGI [18]: > 100 µM | TGI [19]: > 100 µM

NC(=S)N/N=C1\CCCCC1C(O)(C(F)(F)Cl)C(F)(F)Cl (centres undefined)
TGI [1]: > 10 µM | TGI [3]: > 10 µM | TGI [4]: > 10 µM | TGI [5]: > 10 µM | TGI [6]: > 10 µM | TGI [7]: > 10 µM | TGI [8]: > 10 µM | TGI [9]: > 10 µM | TGI [10]: > 10 µM | TGI [11]: > 10 µM | TGI [12]: > 10 µM | TGI [13]: > 10 µM | TGI [14]: > 10 µM | TGI [15]: > 10 µM | TGI [16]: > 10 µM | TGI [17]: > 10 µM | TGI [18]: > 10 µM | TGI [19]: > 10 µM

CN(C)Cc1cc(C(=O)/C=C/c2ccc(F)cc2)cc(CN(C)C)c1O
TGI [1]: > 100 µM | TGI [2]: 67.3 µM | TGI [3]: 78 µM | TGI [4]: > 100 µM | TGI [5]: 86.9 µM | TGI [6]: > 100 µM | TGI [7]: > 100 µM | TGI [8]: 20.7 µM | TGI [9]: 36.5 µM | TGI [10]: 42.4 µM | TGI [11]: > 100 µM | TGI [12]: 38.9 µM | TGI [13]: > 100 µM | TGI [14]: > 100 µM | TGI [15]: 83.9 µM | TGI [16]: 46.9 µM | TGI [18]: > 100 µM | TGI [19]: 8.98 µM

O=c1c2c3c(sc2nc2n1N=C(c1ccc([N+](=O)[O-])cc1)CS2)CCCC3
TGI [1]: > 100 µM | TGI [2]: > 100 µM | TGI [3]: > 100 µM | TGI [4]: > 100 µM | TGI [5]: > 100 µM | TGI [6]: > 100 µM | TGI [7]: > 100 µM | TGI [8]: > 100 µM | TGI [9]: > 100 µM | TGI [10]: > 100 µM | TGI [11]: > 100 µM | TGI [12]: > 100 µM | TGI [13]: > 100 µM | TGI [14]: > 100 µM | TGI [15]: > 100 µM | TGI [16]: > 100 µM | TGI [17]: > 100 µM | TGI [19]: > 100 µM

CC(C)(O)CCc1ccc(O)c2c(=O)c3c(O)c4c(cc3oc12)O[C@H]1OC=C[C@@]41O
TGI [1]: > 64 µM | TGI [2]: < 0.0318 µM | TGI [3]: > 100 µM | TGI [4]: > 61.2 µM | TGI [5]: 41.6 µM | TGI [6]: > 100 µM | TGI [7]: 0.252 µM | TGI [8]: > 100 µM | TGI [10]: < 0.01 µM | TGI [11]: > 100 µM | TGI [12]: < 0.01 µM | TGI [13]: 0.64 µM | TGI [14]: 8.74 µM | TGI [15]: 0.273 µM | TGI [16]: 1.44 µM | TGI [17]: 13.2 µM | TGI [18]: > 59.5 µM | TGI [19]: < 0.01 µM
